In general, EC50 refers to the concentration needed to bring the measured effect to its halfway point.

human APJ receptor, sequence (P35414 whole entry): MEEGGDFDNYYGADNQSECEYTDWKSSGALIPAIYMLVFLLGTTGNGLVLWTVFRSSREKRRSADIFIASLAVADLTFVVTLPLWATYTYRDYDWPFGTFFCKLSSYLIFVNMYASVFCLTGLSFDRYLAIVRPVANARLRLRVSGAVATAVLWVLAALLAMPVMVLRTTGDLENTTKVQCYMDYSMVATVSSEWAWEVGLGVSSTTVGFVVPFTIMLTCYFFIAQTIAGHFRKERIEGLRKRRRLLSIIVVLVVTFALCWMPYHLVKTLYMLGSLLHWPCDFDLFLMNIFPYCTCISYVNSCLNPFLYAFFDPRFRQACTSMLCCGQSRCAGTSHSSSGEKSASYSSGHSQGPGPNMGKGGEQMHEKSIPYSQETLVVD

This experiment concerns the target human APJ receptor (Homo sapiens (Human), UniProt P35414). Description: [35S]GTPγS binding assay on membranes from CHO cells stably expressing human APJ receptor. Format: biochemical. The settings on record: read-out: Activity hAPJ SPA EC50 IP. Put shortly: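 Agonist-driven [35S]GTPγS (0.2 nM) binding was measured over 90 min at room temperature on human APJ-expressing CHO membranes with bead capture, in buffer containing 3 μM GDP, 200 mM NaCl and 5 mM MgCl2 (pH 7.5). Excess unlabelled GTPγS (100 μM) gave nonspecific signal; EC50 from non-linear fits.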
In general terms: Binding of GTPγS marks nucleotide exchange on a G protein.
In the case of `COc1cccc(OC)c1-n1c(NS(=O)(=O)[C@@H](C)[C@H](OC)c2ncc(Cl)cn2)nnc1[C@H]1CCC(=O)N1C` (single isomer, unassigned) [Example 405.0, (1R,2S)-1-(5-chloropyrimidin-2-yl)-N-(4-(2,6-dimethoxyphenyl)-5-((R)-1-methyl-5-oxopyrrolidin-2-yl)-4H-1,2,4-triazol-3-yl)-1-methoxypropane-2-sulfonamide or (1R,2S)-1-(5-chloropyrimidin-2-yl)-N-(4-(2,6-dimethoxyphenyl)-5-((S)-1-methyl-5-oxopyrrolidin-2-yl)-4H-1,2,4-triazol-3-yl)-1-methoxypropane-2-sulfonamide], the concentration giving a half-maximal response (EC50) came to 1720 nM. As to `COc1cccc(OC)c1-n1c(NS(=O)(=O)[C@@H](C)[C@H](OC)c2ncc(Cl)cn2)nnc1[C@H]1CCC(=O)N1C` (single isomer, unassigned) [Example 406.0, (1R,2S)-1-(5-chloropyrimidin-2-yl)-N-(4-(2,6-dimethoxyphenyl)-5-((R)-1-methyl-5-oxopyrrolidin-2-yl)-4H-1,2,4-triazol-3-yl)-1-methoxypropane-2-sulfonamide or (1R,2S)-1-(5-chloropyrimidin-2-yl)-N-(4-(2,6-dimethoxyphenyl)-5-((S)-1-methyl-5-oxopyrrolidin-2-yl)-4H-1,2,4-triazol-3-yl)-1-methoxypropane-2-sulfonamide], the concentration giving a half-maximal response (EC50) turned out to be 1080 nM. Under `COc1cccc(OC)c1-n1c(NS(=O)(=O)[C@@H](C)[C@@H](OC(C)C)c2ccc(C)cn2)nnc1[C@H]1CCOC1` (single isomer, unassigned) [Example 408.0, (1S,2S)-N-(4-(2,6-dimethoxyphenyl)-5-((3R)-tetrahydro-3-furanyl)-4H-1,2,4-triazol-3-yl)-1-(5-methyl-2-pyridinyl)-1-(2-propanyloxy)-2-propanesulfonamide or (1S,2S)-N-(4-(2,6-dimethoxyphenyl)-5-((3S)-tetrahydro-3-furanyl)-4H-1,2,4-triazol-3-yl)-1-(5-methyl-2-pyridinyl)-1-(2-propanyloxy)-2-propanesulfonamide] stands 64 nM; under `COc1cccc(OC)c1-n1c(NS(=O)(=O)[C@@H](C)[C@H](C)c2ccc(Cl)cn2)nnc1C1CCOC1` (single isomer, unassigned) [Example 409.0], 11 nM. `COc1cccc(OC)c1-n1c(NS(=O)(=O)[C@@H](C)[C@H](C)c2ccc(Cl)cn2)nnc1C1CCOC1` (single isomer, unassigned) [Example 410.0]: the EC50 was found to be 19 nM. Under `COc1cccc(OC)c1-n1c(NS(=O)(=O)[C@@H](C)[C@@H](OC(C)C)c2ncc(C)cn2)nnc1[C@@H]1COC(C)(C)C1` (single isomer, unassigned) [Example 411.0, (1S,2S)-N-(4-(2,6-dimethoxyphenyl)-5-((3R)-5,5-dimethyltetrahydro-3-furanyl)-4H-1,2,4-triazol-3-yl)-1-(5-methyl-2-pyrimidinyl)-1-(2-propanyloxy)-2-propanesulfonamide or (1S,2S)-N-(4-(2,6-dimethoxyphenyl)-5-((3S)-5,5-dimethyltetrahydro-3-furanyl)-4H-1,2,4-triazol-3-yl)-1-(5-methyl-2-pyrimidinyl)-1-(2-propanyloxy)-2-propanesulfonamide] stands 86 nM.

Consider `COc1cccc(OC)c1-n1c(NS(=O)(=O)[C@@H](C)[C@@H](OC(C)C)c2ncc(C)cn2)nnc1[C@@H]1COC(C)(C)C1` (single isomer, unassigned) [Example 412.0, (1S,2S)-N-(4-(2,6-dimethoxyphenyl)-5-((3R)-5,5-dimethyltetrahydro-3-furanyl)-4H-1,2,4-triazol-3-yl)-1-(5-methyl-2-pyrimidinyl)-1-(2-propanyloxy)-2-propanesulfonamide or (1S,2S)-N-(4-(2,6-dimethoxyphenyl)-5-((3S)-5,5-dimethyltetrahydro-3-furanyl)-4H-1,2,4-triazol-3-yl)-1-(5-methyl-2-pyrimidinyl)-1-(2-propanyloxy)-2-propanesulfonamide], for which the EC50 was determined as 40 nM. Under `COc1cccc(OC)c1-n1c(NS(=O)(=O)[C@@H](C)[C@@H](OC(C)C)c2ncc(Cl)cn2)nnc1[C@H]1CCC(C)(C)O1` (single isomer, unassigned) [Example 413.0, (1S,2S)-1-(5-chloro-2-pyrimidinyl)-N-(4-(2,6-dimethoxyphenyl)-5-((2R)-5,5-dimethyltetrahydro-2-furanyl)-4H-1,2,4-triazol-3-yl)-1-(2-propanyloxy)-2-propanesulfonamide or (1S,2S)-1-(5-chloro-2-pyrimidinyl)-N-(4-(2,6-dimethoxyphenyl)-5-((2S)-5,5-dimethyltetrahydro-2-furanyl)-4H-1,2,4-triazol-3-yl)-1-(2-propanyloxy)-2-propanesulfonamide] stands 7.4 nM; under `COc1cccc(OC)c1-n1c(NS(=O)(=O)[C@@H](C)[C@@H](OC(C)C)c2ncc(Cl)cn2)nnc1[C@H]1CCC(C)(C)O1` (single isomer, unassigned) [Example 414.0, (1S,2S)-1-(5-chloro-2-pyrimidinyl)-N-(4-(2,6-dimethoxyphenyl)-5-((2R)-5,5-dimethyltetrahydro-2-furanyl)-4H-1,2,4-triazol-3-yl)-1-(2-propanyloxy)-2-propanesulfonamide or (1S,2S)-1-(5-chloro-2-pyrimidinyl)-N-(4-(2,6-dimethoxyphenyl)-5-((2S)-5,5-dimethyltetrahydro-2-furanyl)-4H-1,2,4-triazol-3-yl)-1-(2-propanyloxy)-2-propanesulfonamide], 1.2 nM; under `C[C@H](c1ncc(Cl)cn1)[C@H](C)S(=O)(=O)Nc1nnc([C@@H]2CCOC2)n1[C@H](C)c1ccon1` (single isomer, unassigned) [Example 415.0, (2S,3R)-3-(5-chloro-2-pyrimidinyl)-N-(4-((1R)-1-(1,2-oxazol-3-yl)ethyl)-5-((3S)-tetrahydro-3-furanyl)-4H-1,2,4-triazol-3-yl)-2-butanesulfonamide or (2S,3R)-3-(5-chloro-2-pyrimidinyl)-N-(4-((1S)-1-(1,2-oxazol-3-yl)ethyl)-5-((3S)-tetrahydro-3-furanyl)-4H-1,2,4-triazol-3-yl)-2-butanesulfonamide], 230 nM. Under `C[C@H](c1ncc(Cl)cn1)[C@H](C)S(=O)(=O)Nc1nnc([C@@H]2CCOC2)n1[C@H](C)c1ccon1` (single isomer, unassigned) [Example 416.0, (2S,3R)-3-(5-chloro-2-pyrimidinyl)-N-(4-((1R)-1-(1,2-oxazol-3-yl)ethyl)-5-((3S)-tetrahydro-3-furanyl)-4H-1,2,4-triazol-3-yl)-2-butanesulfonamide or (2S,3R)-3-(5-chloro-2-pyrimidinyl)-N-(4-((1S)-1-(1,2-oxazol-3-yl)ethyl)-5-((3S)-tetrahydro-3-furanyl)-4H-1,2,4-triazol-3-yl)-2-butanesulfonamide] stands 190 nM. Under `COc1cccc(OC)c1-n1c(NS(=O)(=O)[C@@H](C)[C@@H](OC(C)C)c2ncc(C)cn2)nnc1[C@H]1CCC(=O)N1C` (single isomer, unassigned) [Example 417.0, (1S,2S)-N-(4-(2,6-dimethoxyphenyl)-5-((2R)-1-methyl-5-oxo-2-pyrrolidinyl)-4H-1,2,4-triazol-3-yl)-1-(5-methyl-2-pyrimidinyl)-1-(2-propanyloxy)-2-propanesulfonamide or (1S,2S)-N-(4-(2,6-dimethoxyphenyl)-5-((2S)-1-methyl-5-oxo-2-pyrrolidinyl)-4H-1,2,4-triazol-3-yl)-1-(5-methyl-2-pyrimidinyl)-1-(2-propanyloxy)-2-propanesulfonamide] stands 190 nM. For the molecule `COc1cccc(OC)c1-n1c(NS(=O)(=O)[C@@H](C)[C@@H](OC(C)C)c2ncc(C)cn2)nnc1[C@H]1CCC(=O)N1C` (single isomer, unassigned) [Example 418.0, (1S,2S)-N-(4-(2,6-dimethoxyphenyl)-5-((2R)-1-methyl-5-oxo-2-pyrrolidinyl)-4H-1,2,4-triazol-3-yl)-1-(5-methyl-2-pyrimidinyl)-1-(2-propanyloxy)-2-propanesulfonamide or (1S,2S)-N-(4-(2,6-dimethoxyphenyl)-5-((2S)-1-methyl-5-oxo-2-pyrrolidinyl)-4H-1,2,4-triazol-3-yl)-1-(5-methyl-2-pyrimidinyl)-1-(2-propanyloxy)-2-propanesulfonamide], the EC50 was 350 nM. `COc1cccc(OC)c1-n1c(NS(=O)(=O)[C@@H](C)[C@H](C)c2ncc(Cl)cn2)nnc1[C@H]1CCC(=O)N1C` (single isomer, unassigned) [Example 419.0, (2S,3R)-3-(5-chloro-2-pyrimidinyl)-N-(4-(2,6-dimethoxyphenyl)-5-((2R)-1-methyl-5-oxo-2-pyrrolidinyl)-4H-1,2,4-triazol-3-yl)-2-butanesulfonamide or ((2S,3R)-3-(5-chloro-2-pyrimidinyl)-N-(4-(2,6-dimethoxyphenyl)-5-((2S)-1-methyl-5-oxo-2-pyrrolidinyl)-4H-1,2,4-triazol-3-yl)-2-butanesulfonamide]: the EC50 is 3430 nM.

For the molecule `COc1cccc(OC)c1-n1c(NS(=O)(=O)CCc2ncc(Cl)cn2)nnc1[C@@H]1COCCO1` (single isomer, unassigned) [Example 424.0, 2-(5-chloro-2-pyrimidinyl)-N-(4-(2,6-dimethoxyphenyl)-5-((2R)-1,4-dioxan-2-yl)-4H-1,2,4-triazol-3-yl)ethanesulfonamide or 2-(5-chloro-2-pyrimidinyl)-N-(4-(2,6-dimethoxyphenyl)-5-((2S)-1,4-dioxan-2-yl)-4H-1,2,4-triazol-3-yl)ethanesulfonamide], the EC50 worked out at 52 nM. Under `COc1cccc(OC)c1-n1c(NS(=O)(=O)CCc2ncc(Cl)cn2)nnc1[C@@H]1COCCO1` (single isomer, unassigned) [Example 425.0, 2-(5-chloro-2-pyrimidinyl)-N-(4-(2,6-dimethoxyphenyl)-5-((2R)-1,4-dioxan-2-yl)-4H-1,2,4-triazol-3-yl)ethanesulfonamide or 2-(5-chloro-2-pyrimidinyl)-N-(4-(2,6-dimethoxyphenyl)-5-((2S)-1,4-dioxan-2-yl)-4H-1,2,4-triazol-3-yl)ethanesulfonamide] stands 130 nM.

(Values after patent publication US10150760B2, “Compounds for use in preparing heterocyclic triazole agonists of the APJ receptor” (AMGEN INC., priority 2016, dated 2018).)
